Square brackets hold non-standard residues; d marks the D form. Ends that are not written are not given here.
Tests used:
U937 cells = assay: Intracellular concentration of transporter constructs subsequent to uptake into U937 cells; type: cell-based; settings: for intracellular concentration of transporter construct subsequent to uptake: U937 cells, 10 μM construct
Experimental: 9. Determination of Intracellular Concentration of Specific Transporter Constructs Subsequent to Uptake (Internalization) of these Peptides into U937 Cells • According to a further experiment, the concentration of specific transporter constructs subsequent to uptake (internalization) of these peptides into U937 cells were determined.

Hela cells = assay: Internalization of r3-L-TAT-derived transporters in Hela cells; type: cell-based; settings: 2, 6 or 24 hours; 0, 500 nM, 1 mM or 10 mM
Description: The time dependant internalization (uptake) of FITC-labeled TAT derived transporter constructs into cells of the HL-60 cell line was furthermore carried out with materials and methods as described above using sequences of the 96-FITC-labeled D-TAT derivative transporters. These sequences are listed below.
• In the above table D amino acids are indicated by a small “d” prior to the respective amino acid residue (e.g. dR=D-Arg). • For a few sequences synthesis failed in the first approach unfortunately due to technical reasons. […] Hela cells were incubated 24 hours in 96 well plate with […] of the r3-L-TAT-derived transporters. Alternatively, human lymphoma cells are used. The cells were then washed twice with an acidic buffer (0.2M Glycin, 0.15M NaCl, pH 3.0) and twice with PBS. Cells were broken by the addition of RIPA lysis buffer. […] Briefly, Hela cells were incubated 2, 6 or 24 hours in 24 well plate with increasing dose of the r3-L-TAT-derivative transporters (0, 500 nM, 1 mM or 10 mM). The cells were then washed twice with an acidic buffer (0.2M Glycin, 0.15M NaCl, pH 3.0) and twice with PBS. Cells were broken by the addition of RIPA lysis buffer.

Monocytes (CD14) = assay: Flow cytometry of FITC-transporter content in primary human white blood cells: monocytes; type: cell-based; settings: 1 uM, 30 min
Description: (§1) Primary human white blood cells (WBC) were obtained from whole blood after red blood cell lysis. […] Cells containing D-TAT-FITC and r3-L-TAT-FITC were finally analysed by flow cytometry to measure their respective transporter content.

[1] = test system: HepG2 hepatocarcinoma, HCT-116 tumoral colon; assay: Uptake of FITC-labeled TAT derived transporter constructs in HepG2 and HCT-116; type: cell-based, human; settings: 10 μM, 24 h
[2] = Tissue distribution of C14 radiolabeled D-TAT-tagged peptides; type: in vivo, mouse; settings: 1 mg/kg s.c., i.v., i.p.; 72 hours after injection
Experimental: Mice were treated via three different routes of administration (s.c., i.v., i.p.) with radiolabeled peptides with C^14 (1 mg/kg). Animals were sacrificed 72 hours after injection and processed for immunoradiography. […] This illustrates that the transporter D-TAT is responsible for the tissue distribution.

Neutrophils (CD15) = assay: Flow cytometry of FITC-transporter content in primary human white blood cells: neutrophils; type: cell-based; settings: 1 uM, 30 min
Description: as §1

Lymphocytes T (CD3) = assay: Flow cytometry of FITC-transporter content in primary human white blood cells: lymphocytes T; type: cell-based; settings: 1 uM, 30 min
Description: as §1

[3] = test system: dissociated cortical primary neurons; assay: Confocal microscopy of FITC-labeled TAT derivative transporters in cortical primary neurons; type: cell-based, rat; settings: 500 nM, 24 hours
Experimental: 8.4 Internalization Experiments and Analysis • The time dependant internalization (uptake) of FITC-labeled TAT derived transporter constructs into cells of the HL-60 cell line was carried out with materials and methods as described above. • Briefly, HL-60 cells were incubated 30 min, 1, 6 or 24 hours with 10 μM of the TAT-derivative transporters. The cells were then washed twice with an acidic buffer (0.2 M Glycin, 0.15 M NaCl, pH 3.0) and twice with PBS. Cells were broken by the addition of RIPA lysis buffer. The relative amount of internalized peptide was then determined by reading the fluorescence intensity (Fusion Alpha plate reader; PerkinElmer) of each extract followed by background substraction and protein content normalization. […] The dissociated cortical primary neurons from P2 Sprague Dawley rats were cultured 12 days in neurobasal medium before exposure 24 hours to 500 nM of the FITC-labeled • TAT derivative transporters. The cells were washed five times with PBS on ice and then mounted in fluorsave mounting medium without prior fixation. Acquisitions were performed on LSM510 metaconfocal microscope (Zeiss). Images were processed with LSM510 software and mounted using Adobe photoshop. Visualization by confocal microscopy of labeling with 500 nM FITC-transporters (A: green). Nuclei were stained by Hoechst (B: blue).

Lymphocytes B (CD19) = assay: Flow cytometry of FITC-transporter content in primary human white blood cells: lymphocytes B; type: cell-based; settings: 1 uM, 30 min
Description: as §1

U937 lymphoma cells = assay: Uptake (internalization) of FITC-labeled TAT derived transporter constructs in U937 cells, fluorescence plate reader; type: cell-based
Experimental: Cells were plated into poly-DL-lysine coated dishes at a concentration of 1×10^6 cells/ml. Plates were then incubated for 24 h at 37° C., 5% CO2, and 100% relative humidity prior to the addition of a known concentration of peptide. After peptide addition, the cells were incubated 30 min, 1, 6 or 24 h at 37° C., 5% CO2, and 100% relative humidity. Cells were then washed twice with an acidic buffer (Glycin 0.2 M, NaCl 0.15 M, pH 3.0) in order to remove the cell-surface adsorbed peptide (see Kameyama et al., (2007), Biopolymers, 88, 98-107). […] The cell wash using an acidic buffer was thus employed to remove the cell-surface adsorbed peptides. […] Cells were broken by the addition of the RIPA lysis buffer. The relative amount of internalized peptide was then determined by fluorescence after background substraction and protein content normalization. • The steps are thus: 1. […] Analysis of peptide internalization with a fluorescence plate reader • f) Cell Culture and Peptide Treatment • (1) The 6 well culture plates are coated with 3 ml of Poly-D-Lys (Sigma P9011; 25 μg/ml in PBS), the 24 well plates with 600 μl and the 96 well plates with 125 μl and incubated for 4 h at 37° C., CO2 5% and 100% relative humidity. • (2) After 4 hours the dishes were washed twice with 3.5 ml PBS, 700 μl or 150 μl PBS for the 6, 24 or 96 well plates, respectively. • (3) The cells were plated into the dishes in 2.4 ml medium (RPMI) at plating densities of 1′000′000 cells/ml for suspension cells. After inoculation, the plates were incubated at 37° C., 5% CO2 and 100% relative humidity for 24 hours prior to the addition of the peptide. Adherent cells should be at a density of 90-95% the day of treatment and were plated in DMEM :
• (4) The cells were treated with the desired concentration of FITC labeled peptide (stock solution at a concentration of 10 mM in H2O). • (5) Following peptide addition, the cells were incubated 0 to 24 hours (e.g. 30 min, 1, 6 or 24 hours) at 37° C., CO2 5% and 100% relative humidity. • Acidic Wash and Cellular Extracts: • (6) The extracts were cooled on ice. • Suspension cells (or cells, which don attach well to the dish): • Transfer the cells in ? […] To recover the maximum of cells, wash the dish with 1 ml of PBS. • Harvest the cells 2 min at 2400 rpm max. • Suspend the cells in 1 ml cold PBS. • Transfer the cells into a coated “Eppendorf tube” (coated with 1 ml of poly D-Lys for 4 hours and washed twice with 1 ml PBS). • Wash three times with 1 ml of cold acidic wash buffer and centrifuge 2 min at 2400 rpm max. Beware of the spreading of the cells in the “eppendorf”. • Wash twice with 1 ml cold PBS to neutralize. • Add 50 μl of lysis RIPA Buffer. • Incubate 30 min-1 h on ice with agitation. • Adherent Cells: • Wash three times with 3 ml, 1 ml or 200 μl (for 6, 24 or 96 well plates, respectively) of cold acidic wash buffer. Beware of the cells who detach from the dish. • Wash twice with 1 ml cold PBS (for 6, 24 or 96 well plates, respectively) to neutralize. • Add 50 μl of lysis RIPA buffer. • Incubate 30 min-1 h on ice with agitation. • Scrap the cells with a cold scrapper. The 24 and 96 well plates were directly centrifuged at 4000 rpm at 4° for 15 min to remove the cellular debris. Then the supernatants (100 or 50 ml respectively for the 24 or 96 well plates) were directly transferred in a dark 96 well plated.

rYKRrQRRr ([dR]YKR[dR]QRR[dR]) [TAT(s2-91)]
accumulation in the cell (intracellular concentration) (U937 cells; 10 μM in medium): significantly higher than the concentration of the transporter construct in the medium
intracellular concentration of transporter construct subsequent to uptake (U937 cells; 2 h): 3.16
intracellular concentration of transporter construct subsequent to uptake (U937 cells; 4 h): 4.27
intracellular concentration of transporter construct subsequent to uptake (U937 cells; 6 h): 4.68
intracellular concentration of transporter construct subsequent to uptake (U937 cells; 24 h): 50
transporter activity and kinetics of transport activity (Hela cells): highest transporter activity

rrrqrrkkr [D-TAT]
binding to cell population (Monocytes (CD14)): binds to monocytes, neutrophils and lymphocyte T cells
uptake (internalization) [1]: most efficient
intracellular concentration of transporter construct subsequent to uptake (U937 cells; 2 h): 2.00
intracellular concentration of transporter construct subsequent to uptake (U937 cells; 4 h): 2.24
intracellular concentration of transporter construct subsequent to uptake (U937 cells; 6 h): 3.55
intracellular concentration of transporter construct subsequent to uptake (U937 cells; 24 h): 17.3
tissue distribution (accumulation) [2]: in the liver, spleen, and bone marrow predominantly
binding to cell population (Neutrophils (CD15)): binds to monocytes, neutrophils and lymphocyte T cells
binding to cell population (Lymphocytes T (CD3)): seeming to bind more efficiently to lymphocyte T than the r3-L-TAT
binding to cell population (Lymphocytes T (CD3); listed as dTAT): binds to monocytes, neutrophils and lymphocyte T cells
internalization seen by confocal microscopy [3]: internalized into the cytoplasm of the non stressed neurons
binding to cell population (Lymphocytes B (CD19)): less efficiently to lymphocyte B cells
uptake (internalization) (U937 lymphoma cells; 10 μM, U937, Lymphoma, 24 h): most efficient
HSPG dependency of uptake (internalization) (U937 lymphoma cells; 500 nm over 24 hours in U937 cells): HSPG-dependent

— US10023615B2, “Efficient transport into white blood cells” (priority 2008, dated 2018)
